Assays:
Type in all cases: cell-based, mouse
spleen dendritic cells [1] = assay: Fluorescence staining of CD86 in spleen dendritic cells, confocal microscope; conditions: 24 hours
Method: In FIG. 11, culturing spleen dendritic cells (2×10^5/mL) and the prepared peptides were added at a concentration of 200 μg/mL, respectively, and after 6 hours, the expression level of CD86 using a PE-conjugated anti-CD86 antibody (eBioscience) was measured through a confocal microscope after fluorescence staining. After culturing spleen primary dendritic cells for a certain period of time, intracellular CD86, F-actin and nuclear staining was implemented. Expression of actin was stained with FITC-conjugated phalloidin (eBioscience), and nuclear staining was conducted with Hoechst 33342 (Sigma-Aldrich). For this purpose, cells cultured in a 48-well plate were placed in a 4% paraformaldehyde fixing solution, and then fixed at room temperature for 20 minutes.
Then, after washing twice with phosphate buffered saline solution, it was permeabilized with 0.1% Triton X-100 (Sigma-Aldrich) solution at room temperature for 5 minutes and washed twice with phosphate buffered saline solution. In order to remove non-specific staining, after reacting with 0.2% bovine serum albumin (Sigma-Aldrich) solution at room temperature for 20 minutes, it was washed twice with phosphate buffered saline solution. After that, the anti-CD86 antibody and phalloidine were diluted in 0.2% bovine serum albumin solution at a ratio of 1:40 and reacted for 40 minutes, washed 3 times with Tris buffer, placed on a slide glass, followed by counter-staining with Hoechst 33342 solution for nuclear staining of cells. After sealing with a cover glass, the cells were observed using a confocal laser microscope (K1 nanoscope).
In FIG. 26, spleen dendritic cells (2×10^5/mL) were dispensed in a 48-well plate, and linker peptides were each added at a concentration of 400 μg/mL, followed by culturing for 24 hours. Activation of spleen dendritic cells was induced by adding 1 μg/mL of LPS to the culture medium. The cultured cells were placed in a 4% paraformaldehyde fixing solution and fixed at room temperature for 20 minutes. After fluorescence staining using PE-conjugated anti-CD86 antibody (eBioscience), it was measured with a confocal microscope (K1 Nanoscope, Korea). Intracellular actin expression was stained with FITC-conjugated phalloidin (eBioscience), and nuclear staining was conducted with Hoechst 33342 (Sigma-Aldrich). CD86 antibody and phalloidin were diluted 1:40 in 0.2% bovine serum albumin solution and used.

spleen dendritic cells [2] = assay: CD86 expression of spleen dendritic cells after immunostimulant (LPS or poly (I:C)), flow cytometry
Method: In FIG. 14, the expression level of CD86 in spleen primary dendritic cells cultured for 24 hours was measured similarly to the expression level of CD86 increased when E. coli LPS as an activation-inducing agent was used for treatment at a concentration of 1 μg/mL. […] CD86 expression of spleen dendritic cells cultured with addition of fibronectin was not increased even when 1 μg/mL LPS was treated.
In FIG. 20, compared to LPS binding to Toll-like receptor-4 of immune cells and inflammatory cells including dendritic cells, when poly (I:C) (polyinosinic:polycytidylic acid), which is similar to double-stranded RNA in terms of structure and is known as an immunostimulant that binds to Toll-like receptor-3, was administered at a concentration of 50 μg/mL, the increase in the expression of CD86 in spleen dendritic cells was inhibited when cultured with addition of fibronectin.

[3] = test system: bone marrow-derived dendritic cells; assay: CD86 expression of LPS-stimulated bone marrow-derived dendritic cells, flow cytometry; conditions: 24 hours, LPS 1 μg/mL
Method: Compared to spleen dendritic cells, when bone marrow-derived DCs (BMDCs) were stimulated with LPS, effects of the peptide combination and the addition of fibronectin were measured.
Mouse bone marrow-derived dendritic cells were obtained by differentiation from mouse bone marrow precursor cells. The femur and tibia of female C57BL/6 mouse were removed, and bone marrow was isolated using 10 mL of EDTA:BSS (Balanced Salt Solution) buffer containing 2% FBS. Red blood cells were removed with erythrocyte lysis buffer (Sigma-Aldrich), washed with EDTA:BSS buffer, followed by filtering cells using a 70 μm cell strainer (Falcon). Cells at 3×10^6/mL were dispensed in a 6-well plate, and interleukin-4 (20 ng/ml) (JW Creagene, Korea) and GM-CSF (20 ng/ml) (JW Creagene) were added and cultured for 7 days to induce differentiation. Differentiated dendritic cells were reacted with microbeads bound with CD11c antibody (eBioscience), was separated using CD11c Microbeads Ultrapure (MACS, Milteni Biotec), and then cultured.
In FIG. 17, while culturing 2×10^5/mL of bone marrow-derived dendritic cells for 24 hours, the peptides of P1, P2 and P3 were each added at a concentration of 200 μg/mL or fibronectin was added at a concentration of 200 μg/mL. […]

[4] = test system: spleen T cells from Balb/c mice; assay: Mixed lymphocyte reaction: proliferation of CFSE-stained allogeneic T cells co-cultured with spleen dendritic cells; conditions: dendritic cells cultured with the substance and activated with LPS or poly (I:C), co-culture 1:20, 4 days
Method: Since the main role of activated dendritic cells is to induce antigen-specific T-cell activation and proliferation according to the stimulatory properties, it was investigated whether self-activated dendrite cells after culturing and dendritic cells activated with LPS after culturing with addition of peptides can induce T cell proliferation by mixed lymphocyte reaction (MLR) test. The spleen dendritic cells isolated from C57B/L6 mice were self-activated for 24 hours, otherwise, when cultured with addition of peptides or fibronectin, the cells were treated with LPS and activated. Spleen T cells from Balb/c mice were isolated using a CD4^+/CD8^+ T cell isolation kit (Miltenyi Biotec, Bergisch-Gladbach, Germany) and MACS column (Miltenyi Biotec), followed by 10 μM CFSE staining (Molecular Probes; Thermo Fisher Scientific Inc., USA). The activated dendritic cells and CFSE-stained T cells were co-cultured at a ratio of 1:20 for 4 days, and the T cell proliferation level was measured as a percentage of cells with decreased CFSE. […] In FIG. 22, the amount of cytokines secreted after co-culture of spleen dendritic cells and T cells for 4 days was measured by ELISA method. […]

fibronectin
CD86-expressing cells (spleen dendritic cells [1]; with 1 μg/mL LPS): almost not measured | CD86-expressing cells (spleen dendritic cells [1]; without LPS, linker peptides 400 μg/mL): almost not observed | expression of CD86 by LPS stimulation (spleen dendritic cells [2]; cultured 24 hours with the substance, 1 μg/mL LPS): not increased | increase in the expression of CD86 by poly (I:C) (spleen dendritic cells [2]; poly (I:C) 50 μg/mL, 24 hours, peptides 200 μg/mL each): inhibited | CD86 expression by LPS ([3]; BMDC 2×10^5/mL, 200 μg/mL): did not occur | concentration from which the increase in CD86 expression by LPS was inhibited ([3]; BMDC): ≥ 50 µg/mL | T cell proliferation (cells with decreased CFSE) [4]: not inducing T cell proliferation

Reference: US20240207308A1, “METHOD FOR CULTURING DENDRITIC CELLS” (NANOFAENTECH CO., LTD., priority 2021, published 2024)
